Experimental data from patent US5294725A, “Scopularin” (E. R. Squibb & Sons, Inc., priority 1989, dated 1994).
≈ marks a conversion by molar mass, not a printed value.

Columns and labels:
lanosterol demethylase [1] = biological target: T1, lanosterol demethylase (Candida albicans, UniProt P10613); experiment: Radiolabeled metabolic assay of lanosterol demethylase inhibition (14C-acetate, lanosterol accumulation); type: cell-based; settings: Candida albicans SC5314, 1 hour, 30°, TLC autoradiography
T1 construct: endogenous in cells; host or cells: Candida albicans SC5314
Experimental: (§1) The inhibition of lanosterol demethylase was determined by two methods: the spectrophotometric carbon monoxide binding assay of Omura and Sato (J. Biol. Chem. 239:2370-2378, 1964) and by a radiolabeled metabolic assay.
The ability of scopularin and its alcohol to inhibit the lanosterol demethylase of Candida albicans can also be visualized by a metabolic assay. Candida albicans SC5314, was grown overnight at 30° with shaking in the same medium as that used above. Cells were harvested by centrifugation and resuspended in water to give an optical density of 0.3 at 660 nm. 750 μl of this cell suspension, 300 μl of a medium containing 0.35 g Difco yeast nitrogen base without amino acids, 1 g glucose and distilled water to 10 ml, 100 μl of test material and distilled water were combined to give a final volume of 1.425 ml. This was incubated for 15 minutes at 30° C. with shaking, then 3 μCi ^14 C-acetate was added and continued to incubate for 1 hour. Cells were harvested by centrifugation and extracted with 2×0.5 ml methanol; centrifuged, decanted supernate and repeated the extraction with […] methanol-benzene (1:1). Centrifuged, decanted; combined supernates, dried and resuspended in 100 μl chloroform-methanol (1:1). The aliquots were spotted onto silica gel 60 (Merck) plates and developed chromatographically in a solvent containing dichloromethane-acetone (60:1). […]

Candida albicans = experiment: Agar dilution MIC assay; type: cell-based
Experimental: (§2) The following methodology was used to determine the miniumum inhibitory concentration (hereinafter referred to as MIC) of scopularin.
(§3) The aerobic test organisms were grown in approximately 15-20 ml of Antibiotic Assay Broth (Difco) by inoculating (in tubes) the broth with a loopful of the organism from a BHI (Difco) agar slant. The inoculated tubes were incubated at 37° C. for 18 to 24 hours. These cultures are assumed to contain 10^7 colony forming units (CFU) per ml and the cultures were diluted 1:100 to give a final inoculum level of 10^5 CFU dilutions were made with Yeast Beef Broth (Difco).
(§4) Scopularin was dissolved in an appropriate diluent at a concentration of 1,000 μg/ml. Two-fold dilutions were made in Yeast Beef Broth (Difco), resulting in a range from 1000 μg/ml to 0.5 μg/ml. 1.5 ml of each dilution was placed into individual petri dishes to which 13.5 ml of K-10 agar was added. The composition of K-10 agar is:
(§5) The final drug concentration in the agar ranged from 100 μg/ml to 0.05 μg/ml. Organism growth control plates containing agar only were prepared and inoculated before and after the test plates. The organisms were applied to the agar surface of each plate with a Denyl Multipoint Inoculator (which delivers approximately 0.001 ml of each organism) resulting in a final inoculum of 10^4 CFU on the agar surface.
(§6) The plates were incubated at 37° C. for 18 hours and the MICs determined. The MIC is the lowest concentration of compound inhibiting growth of the organism.

Candida krusei = experiment: Agar dilution MIC assay; type: cell-based; settings: Pichia kudriavzevii, SC2967, 18 h
Experimental: as §2, §3, §4, §5, §6

lanosterol demethylase [2] = biological target: T1, lanosterol demethylase; experiment: Spectrophotometric carbon monoxide binding assay (Omura and Sato); settings: Candida albicans SGY677, read-out: 50% inhibition of carbon monoxide binding
Experimental: as §1
Cells of Candida albicans, SGY677, were grown overnight without shaking at 30° C. in a medium consisting of yeast extract 1% , peptone 2%, glucose 2% and distilled water. Cells were harvested by centrifugation and resuspended in 0.65M mannitol to an optical density at 600 nm of 2.5. At this density 1 ml of cells was equal to 6.7 mg constant dry weight (105° C. for 18 hours).

T1 sequence (P10613 whole entry): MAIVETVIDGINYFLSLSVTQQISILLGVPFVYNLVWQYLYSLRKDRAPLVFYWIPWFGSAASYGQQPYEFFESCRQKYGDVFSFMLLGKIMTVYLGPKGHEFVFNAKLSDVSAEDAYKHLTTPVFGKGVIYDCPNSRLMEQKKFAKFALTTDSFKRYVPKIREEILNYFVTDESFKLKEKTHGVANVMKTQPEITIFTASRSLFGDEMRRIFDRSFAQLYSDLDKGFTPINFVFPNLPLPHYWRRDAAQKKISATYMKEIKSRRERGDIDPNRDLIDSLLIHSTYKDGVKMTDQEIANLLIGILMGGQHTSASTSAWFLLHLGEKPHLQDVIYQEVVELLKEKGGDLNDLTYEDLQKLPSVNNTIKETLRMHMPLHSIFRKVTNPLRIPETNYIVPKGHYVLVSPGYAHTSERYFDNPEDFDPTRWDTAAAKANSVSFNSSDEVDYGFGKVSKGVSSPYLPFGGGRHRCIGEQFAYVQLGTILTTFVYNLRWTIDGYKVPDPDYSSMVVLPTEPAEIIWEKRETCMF

SMILES: CCC/C=C/C=C/C=C(\C)[C@H]1OC[C@@H](C)[C@@H](OC)[C@@H]1OC(=O)CN (relative stereo) [Scopularin, (2α, 3β, 4α, 5α)-Tetrahydro-4-methoxy-5-methyl-2-(1-methyl-1,3,5-nonatrienyl)-2H-pyran-3-ol, amino-acetate ester]
- concentration causing accumulation of lanosterol, consistent with inhibition of lanosterol demethylase (lanosterol demethylase [1]): 360 µM
- MIC (Candida albicans; SC12, 18 h): 100 µg/mL (≈ 296 µM)
- MIC (Candida albicans; SC14, 18 h): 50 µg/mL (≈ 148 µM)
- MIC (Candida krusei): 0.4 µg/mL (≈ 1.19 µM)

SMILES: CCCC=CC=CC=C(C)[C@H]1OC[C@@H](C)[C@@H](OC)[C@@H]1O (relative stereo) [alcohol]
- concentration causing accumulation of lanosterol, consistent with inhibition of lanosterol demethylase (lanosterol demethylase [1]): 14 µM
- IC50 (lanosterol demethylase [2]): 14 µM
